According to patent publication US9399649B2, “Compounds for treating spinal muscular atrophy” (PTC Therapeutics Inc., priority 2012, dated 2016):

Key:
[1] = tested on: full length SMN2 minigene mRNA containing SMN2 exon 7; test: SMN2 minigene mRNA splicing RT-qPCR assay in cultured cells; format: cell-based, human; settings: Homo sapiens, HEK293-H; HEK293H cells stably transfected with SMN2-A minigene, 24 hours, 7-point concentration curve; concentration giving 1.5-fold full length SMN2 mRNA vs vehicle; read-out: EC1.5x for production of full length SMN2 mRNA
Summary of the method: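 Read-out is minigene FL mRNA (exon 7 included) relative to vehicle, from efficiency-corrected ΔΔCt with GAPDH normalisation. Primers and probe span exon 7, exon 8 and luciferase, so endogenous SMN is not detected. Stable SMN2-A minigene HEK293H cells, 24 h compound exposure at 37 °C, 7-point curve in duplicate.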

Smn protein = Smn protein assay in cultured cells (SMN HTRF); format: cell-based, human; settings: SMA patient fibroblast cells (GM03813), 48 hours; for EC1.5x for Smn protein expression: 7-point concentration curve, concentration producing 1.5 times Smn protein vs DMSO vehicle; for maximum fold (Fold) increase of Smn protein: 7-point concentration data, relative to vehicle control
Summary of the method: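 Smn protein measured by HTRF (anti-SMN d2/kryptate) in lysates of SMA patient fibroblasts after 48 h compound treatment, 7-point 3.16-fold dilutions, triplicates. The 665/620 nm ratio is blank-corrected to ΔF, then divided by the vehicle ΔF to give fold increase.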

melting point [°C]	Compound	EC (1.5-fold) [1] [µM]	EC1.5x for Smn protein expression (Smn protein)	maximum fold (Fold) increase of Smn protein (Smn protein)
238 to 243	CCN1CCN(c2ccc3cc(-c4cn5cc(C)nc(C)c5n4)oc(=O)c3c2)C[C@@H]1C [Cpd 135, 3-(6,8-dimethylimidazo[1,2-a]pyrazin-2-yl)-7-[(3S)-4-ethyl-3-methylpiperazin-1-yl]-1H-isochromen-1-one]	≤ 0.1	**** (an EC1.5×≦0.3 nM is indicated by four stars (****))	***** (a fold increase >1.65 is indicated by five stars (*****))
277 to 282	Cc1cn2cc(-c3cc4ccc(N5CCN(C6CCC6)[C@@H](C)C5)cc4c(=O)o3)nc2c(C)n1 [Cpd 136, 7-[(3S)-4-cyclobutyl-3-methylpiperazin-1-yl]-3-(6,8-dimethylimidazo[1,2-a]pyrazin-2-yl)-1H-isochromen-1-one]	≤ 0.1	**** (an EC1.5×≦0.3 nM is indicated by four stars (****))	***** (a fold increase >1.65 is indicated by five stars (*****))
249 to 254	CCCN1CCN(c2ccc3cc(-c4cn5cc(C)nc(C)c5n4)oc(=O)c3c2)C[C@@H]1C [Cpd 137, 3-(6,8-dimethylimidazo[1,2-a]pyrazin-2-yl)-7-[(3S)-3-methyl-4-propylpiperazin-1-yl]-1H-isochromen-1-one]	≤ 0.1	**** (an EC1.5×≦0.3 nM is indicated by four stars (****))	***** (a fold increase >1.65 is indicated by five stars (*****))
266 to 271	Cc1cn2cc(-c3cc4ccc(N5CCN(C(C)C)[C@@H](C)C5)cc4c(=O)o3)nc2c(C)n1 [Cpd 138, 3-(6,8-dimethylimidazo[1,2-a]pyrazin-2-yl)-7-[(3S)-3-methyl-4-(propan-2-yl)piperazin-1-yl]-1H-isochromen-1-one]	0.1 to 0.3	*** (an EC1.5× between >0.3 nM and ≦1 nM is indicated by three stars (***))	**** (a fold increase between >1.5 and ≦1.65 is indicated by four stars (****))
251 to 256	Cc1cn2cc(-c3cc4ccc(N5CCN(C6COC6)[C@@H](C)C5)cc4c(=O)o3)nc2c(C)n1 [Cpd 139, 3-(6,8-dimethylimidazo[1,2-a]pyrazin-2-yl)-7-[(3S)-3-methyl-4-(oxetan-3-yl)piperazin-1-yl]-1H-isochromen-1-one]	0.3 to 1	** (an EC1.5× between >1 μM, and ≦3 nM is indicated by two stars (**))	***** (a fold increase >1.65 is indicated by five stars (*****))
243 to 246	CCN1CCN(c2ccc3cc(-c4cn5cc(C)nc(C)c5n4)oc(=O)c3c2)C[C@H]1C [Cpd 140, 3-(6,8-dimethylimidazo[1,2-a]pyrazin-2-yl)-7-[(3R)-4-ethyl-3-methylpiperazin-1-yl]-1H-isochromen-1-one]	≤ 0.1	**** (an EC1.5×≦0.3 nM is indicated by four stars (****))	***** (a fold increase >1.65 is indicated by five stars (*****))
251 to 256	CCCN1CCN(c2ccc3cc(-c4cn5cc(C)nc(C)c5n4)oc(=O)c3c2)C[C@H]1C [Cpd 141, 3-(6,8-dimethylimidazo[1,2-a]pyrazin-2-yl)-7-[(3R)-3-methyl-4-propylpiperazin-1-yl]-1H-isochromen-1-one]	≤ 0.1	**** (an EC1.5×≦0.3 nM is indicated by four stars (****))	***** (a fold increase >1.65 is indicated by five stars (*****))
256 to 261	Cc1cn2cc(-c3cc4ccc(N5CCN(CCO)[C@H](C)C5)cc4c(=O)o3)nc2c(C)n1 [Cpd 142, 3-(6,8-dimethylimidazo[1,2-a]pyrazin-2-yl)-7-[(3R)-4-(2-hydroxyethyl)-3-methylpiperazin-1-yl]-1H-isochromen-1-one]	≤ 0.1	**** (an EC1.5×≦0.3 nM is indicated by four stars (****))	***** (a fold increase >1.65 is indicated by five stars (*****))
281 to 285	Cc1cn2cc(-c3cc4ccc(N5CCN(C6CCC6)[C@H](C)C5)cc4c(=O)o3)nc2c(C)n1 [Cpd 143, 7-[(3R)-4-cyclobutyl-3-methylpiperazin-1-yl]-3-(6,8-dimethylimidazo[1,2-a]pyrazin-2-yl)-1H-isochromen-1-one]	≤ 0.1	**** (an EC1.5×≦0.3 nM is indicated by four stars (****))	***** (a fold increase >1.65 is indicated by five stars (*****))
262 to 267	Cc1cn2cc(-c3cc4ccc(N5CCN(C(C)C)[C@H](C)C5)cc4c(=O)o3)nc2c(C)n1 [Cpd 144, 3-(6,8-dimethylimidazo[1,2-a]pyrazin-2-yl)-7-[(3R)-3-methyl-4-(propan-2-yl)piperazin-1-yl]-1H-isochromen-1-one]	≤ 0.1	**** (an EC1.5×≦0.3 nM is indicated by four stars (****))	***** (a fold increase >1.65 is indicated by five stars (*****))
205 to 210	COCCN1CCN(c2ccc3cc(-c4cn5cc(C)nc(C)c5n4)oc(=O)c3c2)C[C@H]1C [Cpd 145, 3-(6,8-dimethylimidazo[1,2-a]pyrazin-2-yl)-7-[(3R)-4-(2-methoxyethyl)-3-methylpiperazin-1-yl]-1H-isochromen-1-one]	≤ 0.1	**** (an EC1.5×≦0.3 nM is indicated by four stars (****))	***** (a fold increase >1.65 is indicated by five stars (*****))
221 to 226	COCCN1CCN(c2ccc3cc(-c4cn5cc(C)nc(C)c5n4)oc(=O)c3c2)C[C@@H]1C [Cpd 146, 3-(6,8-dimethylimidazo[1,2-a]pyrazin-2-yl)-7-[(3S)-4-(2-methoxyethyl)-3-methylpiperazin-1-yl]-1H-isochromen-1-one]	0.1 to 0.3	**** (an EC1.5×≦0.3 nM is indicated by four stars (****))	***** (a fold increase >1.65 is indicated by five stars (*****))
253 to 258	CCN1[C@H](C)CN(c2ccc3cc(-c4cn5cc(C)nc(C)c5n4)oc(=O)c3c2)C[C@@H]1C [Cpd 147, 3-(6,8-dimethylimidazo[1,2-a]pyrazin-2-yl)-7-[(3R,5S)-4-ethyl-3,5-dimethylpiperazin-1-yl]-1H-isochromen-1-one]	≤ 0.1	*** (an EC1.5× between >0.3 nM and ≦1 nM is indicated by three stars (***))	***** (a fold increase >1.65 is indicated by five stars (*****))
259 to 263	CCCN1[C@H](C)CN(c2ccc3cc(-c4cn5cc(C)nc(C)c5n4)oc(=O)c3c2)C[C@@H]1C [Cpd 148, 3-(6,8-dimethylimidazo[1,2-a]pyrazin-2-yl)-7-[(3R,5S)-3,5-dimethyl-4-propylpiperazin-1-yl]-1H-isochromen-1-one]	≤ 0.1	*** (an EC1.5× between >0.3 nM and ≦1 nM is indicated by three stars (***))	**** (a fold increase between >1.5 and ≦1.65 is indicated by four stars (****))
261 to 266	Cc1cn2cc(-c3cc4ccc(N5C[C@@H](C)N(C)[C@@H](C)C5)cc4c(=O)o3)nc2c(C)n1 [Cpd 149, 3-(6,8-dimethylimidazo[1,2-a]pyrazin-2-yl)-7-[(3R,5S)-3,4,5-trimethylpiperazin-1-yl]-1H-isochromen-1-one]	≤ 0.1	**** (an EC1.5×≦0.3 nM is indicated by four stars (****))	***** (a fold increase >1.65 is indicated by five stars (*****))
229 to 234	CCc1nc(C)cn2cc(-c3cc4ccc(N5CCN(C)CC5)cc4c(=O)o3)nc12 [Cpd 151, 3-(8-ethyl-6-methylimidazo[1,2-a]pyrazin-2-yl)-7-(4-methylpiperazin-1-yl)-1H-isochromen-1-one]	≤ 0.1	**** (an EC1.5×≦0.3 nM is indicated by four stars (****))	***** (a fold increase >1.65 is indicated by five stars (*****))
206 to 211	CCc1nc(C)cn2cc(-c3cc4ccc(N5CCN[C@@H](C)C5)cc4c(=O)o3)nc12 [Cpd 152, 3-(8-ethyl-6-methylimidazo[1,2-a]pyrazin-2-yl)-7-[(3S)-3-methylpiperazin-1-yl]-1H-isochromen-1-one]	≤ 0.1	**** (an EC1.5×≦0.3 nM is indicated by four stars (****))	***** (a fold increase >1.65 is indicated by five stars (*****))
208 to 213	CCc1nc(C)cn2cc(-c3cc4ccc(N5CCN[C@H](C)C5)cc4c(=O)o3)nc12 [Cpd 153, 3-(8-ethyl-6-methylimidazo[1,2-a]pyrazin-2-yl)-7-[(3R)-3-methylpiperazin-1-yl]-1H-isochromen-1-one]	≤ 0.1	**** (an EC1.5×≦0.3 nM is indicated by four stars (****))	***** (a fold increase >1.65 is indicated by five stars (*****))
